Measured values reported in patent US10123993B2, “Cyclic ureas as inhibitors of rock” (BRISTOL-MYERS SQUIBB COMPANY, priority 2015, dated 2018).

Test system: rat stroke model
Assay: not given
Conditions: in vivo; cited from earlier work

SMILES	infarct size and neurologic deficit
O=S(=O)(c1cccc2cnccc12)N1CCCNCC1 [fasudil]	reduce both the infarct size and neurologic deficit

Molecular target: ROCK2 (Homo sapiens, UniProt O75116)
Assay: ROCK2 kinase inhibition assay (Caliper LABCHIP, FITC peptide substrate)
Assay type: biochemical
Conditions: 5 μM ATP, 1.5 μM peptide substrate; value ranges
How it was run: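 Dose-response curves gave IC50 from inhibition of peptide phosphorylation, measured by LabChip separation after EDTA stop. Reactions used 1.5 μM FITC-labelled peptide, 5 μM ATP, 20 mM HEPES pH 7.5 with MgCl2, Brij-35, DTT, and under 2% DMSO.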

ROCK2, sequence (O75116 whole entry, species assumed): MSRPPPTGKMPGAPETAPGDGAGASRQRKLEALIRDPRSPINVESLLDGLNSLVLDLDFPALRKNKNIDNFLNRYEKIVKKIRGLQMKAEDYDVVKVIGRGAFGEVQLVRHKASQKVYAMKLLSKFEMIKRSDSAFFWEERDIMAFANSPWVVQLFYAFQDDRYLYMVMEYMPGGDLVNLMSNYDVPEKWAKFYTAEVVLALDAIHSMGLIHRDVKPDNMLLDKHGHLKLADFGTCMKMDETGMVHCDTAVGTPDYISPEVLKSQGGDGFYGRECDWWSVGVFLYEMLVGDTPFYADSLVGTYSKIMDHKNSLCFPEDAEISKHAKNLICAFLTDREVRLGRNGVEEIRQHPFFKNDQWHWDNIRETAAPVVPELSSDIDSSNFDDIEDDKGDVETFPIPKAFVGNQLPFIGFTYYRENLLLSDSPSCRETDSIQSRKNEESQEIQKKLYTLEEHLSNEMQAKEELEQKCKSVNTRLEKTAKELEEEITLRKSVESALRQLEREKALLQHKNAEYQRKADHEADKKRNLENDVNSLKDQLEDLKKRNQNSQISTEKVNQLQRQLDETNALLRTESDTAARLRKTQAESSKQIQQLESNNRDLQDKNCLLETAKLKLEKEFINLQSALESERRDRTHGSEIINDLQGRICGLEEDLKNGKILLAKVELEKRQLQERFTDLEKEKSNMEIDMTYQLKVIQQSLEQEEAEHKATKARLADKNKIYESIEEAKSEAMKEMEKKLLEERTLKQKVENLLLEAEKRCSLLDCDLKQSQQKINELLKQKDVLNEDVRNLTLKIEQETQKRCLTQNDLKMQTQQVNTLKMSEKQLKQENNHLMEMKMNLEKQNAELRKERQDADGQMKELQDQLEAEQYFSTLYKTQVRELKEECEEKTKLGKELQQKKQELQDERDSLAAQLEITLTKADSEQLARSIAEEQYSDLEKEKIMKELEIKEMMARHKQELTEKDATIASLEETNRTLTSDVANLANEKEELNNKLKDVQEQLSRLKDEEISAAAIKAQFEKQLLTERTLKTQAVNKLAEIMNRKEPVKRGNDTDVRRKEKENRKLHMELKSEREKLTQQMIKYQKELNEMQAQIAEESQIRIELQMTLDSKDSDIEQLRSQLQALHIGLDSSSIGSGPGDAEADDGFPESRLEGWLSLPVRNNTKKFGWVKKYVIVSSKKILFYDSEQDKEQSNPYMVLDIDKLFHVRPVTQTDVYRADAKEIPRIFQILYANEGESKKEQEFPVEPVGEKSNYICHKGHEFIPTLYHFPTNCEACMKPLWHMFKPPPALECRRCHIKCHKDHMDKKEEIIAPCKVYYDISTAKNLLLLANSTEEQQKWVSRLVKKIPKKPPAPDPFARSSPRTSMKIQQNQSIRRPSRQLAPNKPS

SMILES	IC50
COc1cc(CN2CCN(c3cc(F)c(-c4cn[nH]c4)cc3F)C2=O)ccc1F [Example 449, 1-(2,5-difluoro-4-(1H-pyrazol-4-yl)phenyl)-3-(4-fluoro-3-methobenzyl)imidazolidin-2-one]	20.1 to 200 nM
COc1cc(CN2C(=O)N(c3ccc(-c4cn[nH]c4)cn3)CC2(C)C)ccc1F [Example 450, 1-(5-(1H-pyrazol-4-yl)pyridin-2-yl)-3-(4-fluoro-3-methoxybenzyl)-4,4-dimethylimidazolidin-2-one]	2.1 to 20 nM
COc1cccc(CN2C(=O)N(c3ccc(-c4cn[nH]c4)cn3)CC2(C)C)c1 [Example 451, 1-(5-(1H-pyrazol-4-yl)pyridin-2-yl)-3-(3-methoxybenzyl)-4,4-dimethylimidazolidin-2-one]	< 2 nM
CC1(C)CN(c2ccc(-c3cn[nH]c3)cn2)C(=O)N1Cc1cccc(OCC2CC2)c1 [Example 452, 1-(5-(1H-pyrazol-4-yl)pyridin-2-yl)-3-(3-(cyclopropylmethoxy)benzyl)-4,4-dimethylimidazolidin-2-one]	2.1 to 20 nM
CCc1cc(-n2ccn(Cc3cccc(OC)c3)c2=O)ccc1-c1cn[nH]c1 [Example 453, 1-(3-ethyl-4-(1H-pyrazol-4-yl)phenyl)-3-(3-methoxybenzyl)-1H-imidazol-2(3H)-one]	20.1 to 200 nM
CCc1cc(-n2ccn(Cc3cc(F)cc(OC)c3)c2=O)ccc1-c1cn[nH]c1 [Example 454, 1-(3-ethyl-4-(1H-pyrazol-4-yl)phenyl)-3-(3-fluoro-5-methoxybenzyl)-1H-imidazol-2(3H)-one]	20.1 to 200 nM
CCc1cc(-n2ccn(Cc3cccc(OCC4CC4)c3)c2=O)ccc1-c1cn[nH]c1 [Example 455, 1-(3-(cyclopropylmethoxy)benzyl)-3-(3-ethyl-4-(1H-pyrazol-4-yl)phenyl)-1H-imidazol-2(3H)-one]	200 to 2000 nM
COc1cccc([C@H](C)N2CCN(c3ccc(-c4cn[nH]c4)cc3)C2=O)c1 [Example 456, (S)-1-(4-(1H-pyrazol-4-yl)phenyl)-3-(1-(3-methoxyphenyl)ethyl)imidazolidin-2-one]	20.1 to 200 nM
COc1cc(F)cc(CN2C(=O)N(c3ccc(-c4cn[nH]c4)cn3)CC2(C)C)c1 [Example 458, 1-(5-(1H-pyrazol-4-yl)pyridin-2-yl)-3-(3-fluoro-5-methoxybenzyl)-4,4-dimethylimidazolidin-2-one]	2.1 to 20 nM
COc1cccc(C(CO)N2CCN(c3ccc(-c4cn[nH]c4)c(F)c3)C2=O)c1 (stereo not shown) [Example 463, 1-(3-fluoro-4-(1H-pyrazol-4-yl)phenyl)-3-(2-hydroxy-1-(3-methoxyphenyl)ethyl)imidazolidin-2-one]	2.1 to 20 nM
COc1cc(F)cc(CN2CCN(c3cc(C)c(-c4cn[nH]c4)cn3)C2=O)c1 [Example 464, 1-(3-fluoro-5-methoxybenzyl)-3-(4-methyl-5-(1H-pyrazol-4-yl)pyridin-2-yl)imidazolidin-2-one]	20.1 to 200 nM
COc1cccc(CN2CCN(c3cc(C)c(-c4cn[nH]c4)cn3)C2=O)c1 [Example 465, 1-(3-methoxybenzyl)-3-(4-methyl-5-(1H-pyrazol-4-yl)pyridin-2-yl)imidazolidin-2-one]	20.1 to 200 nM
COc1cccc(CN2CCN(c3ccc(-c4cn[nH]c4)c(OC)n3)C2=O)c1 [Example 466, 1-(6-methoxy-5-(1H-pyrazol-4-yl)pyridin-2-yl)-3-(3-methoxybenzyl)imidazolidin-2-one]	< 2 nM
COc1cc(F)cc(CN2CCN(c3ccc(-c4cn[nH]c4)c(OC)n3)C2=O)c1 [Example 467, 1-(3-fluoro-5-methoxybenzyl)-3-(6-methoxy-5-(1H-pyrazol-4-yl)pyridin-2-yl)imidazolidin-2-one]	< 2 nM
COc1cccc(CN2CCN(c3ccc(-c4cn[nH]c4)c(C4CC4)c3)C2=O)c1 [Example 468, 1-(3-cyclopropyl-4-(1H-pyrazol-4-yl)phenyl)-3-(3-methoxybenzyl)imidazolidin-2-one]	20.1 to 200 nM
COc1cc(F)cc(CN2CCN(c3ccc(-c4cn[nH]c4)c(C4CC4)c3)C2=O)c1 [Example 469, 1-(3-cyclopropyl-4-(1H-pyrazol-4-yl)phenyl)-3-(3-fluoro-5-methoxybenzyl)imidazolidin-2-one]	20.1 to 200 nM
COc1cc(F)cc(CN2CCN(c3cc(OC)c(-c4cn[nH]c4)cn3)C2=O)c1 [Example 472, 1-(3-fluoro-5-methoxybenzyl)-3-(4-methoxy-5-(1H-pyrazol-4-yl)pyridin-2-yl)imidazolidin-2-one]	2.1 to 20 nM
CCOc1cc(N2CCN(Cc3cccc(OC)c3)C2=O)ncc1-c1cn[nH]c1 [Example 473, 1-(4-ethoxy-5-(1H-pyrazol-4-yl)pyridin-2-yl)-3-(3-methoxybenzyl)imidazolidin-2-one]	20.1 to 200 nM
COc1cccc(CN2C(=O)N(c3ccc(-c4cn[nH]c4)cn3)C[C@@H]2CO)c1 [Example 474, (R)-1-(5-(1H-pyrazol-4-yl)pyridin-2-yl)-4-(hydroxymethyl)-3-(3-methoxybenzyl)imidazolidin-2-one]	2.1 to 20 nM
COc1nc(N2CCN(Cc3cccc(OCC4CC4)c3)C2=O)ccc1-c1cn[nH]c1 [Example 475, 1-(3-(cyclopropylmethoxy)benzyl)-3-(6-methoxy-5-(1H-pyrazol-4-yl)pyridin-2-yl)imidazolidin-2-one]	< 2 nM
O=C1N(c2ccc(-c3cn[nH]c3)cc2)C[C@@H](CO)N1Cc1cccc(OCC2CC2)c1 [Example 476, (S)-1-(4-(1H-pyrazol-4-yl)phenyl)-3-(3-(cyclopropylmethoxy)benzyl)-4-(hydroxymethyl)imidazolidin-2-one]	2.1 to 20 nM
COc1cc(Cn2ccn(-c3ccc(-c4cn[nH]c4)c(OC)n3)c2=O)ccc1F [Example 477, 1-(4-fluoro-3-methoxybenzyl)-3-(6-methoxy-5-(1H-pyrazol-4-yl)pyridin-2-yl)-1H-imidazol-2(3H)-one]	< 2 nM
COc1cc(F)cc(Cn2ccn(-c3ccc(-c4cn[nH]c4)c(OC)n3)c2=O)c1 [Example 478, 1-(3-fluoro-5-methoxybenzyl)-3-(6-methoxy-5-(1H-pyrazol-4-yl)pyridin-2-yl)-1H-imidazol-2(3H)-one]	< 2 nM
COc1cccc(C(C)(C(N)=O)N2CCN(c3ccc(-c4cn[nH]c4)cc3)C2=O)c1 (stereo not shown) [compound 306, 2-(3-(4-(1H-pyrazol-4-yl)phenyl)-2-oxoimidazolidin-1-yl)-2-(3-methoxyphenyl)propanamide]	20.1 to 200 nM

Test system: IL-1 beta-induced coronary stenosis
Assay: not given
Conditions: long term treatment; cited from earlier work

SMILES	coronary constrictive remodeling	coronary stenosis
O=S(=O)(c1cccc2cnccc12)N1CCCNCC1 [fasudil]	promote a regression of coronary constrictive remodeling	progressively reduce coronary stenosis

Test system: spontaneously hypertensive rat, renal hypertensive rat and deoxycortisone acetate salt hypertensive rat models
Assay: not given
Conditions: control rats; cited from earlier work

SMILES	blood pressure
C[C@@H](N)[C@H]1CC[C@H](C(=O)Nc2ccncc2)CC1 [Example Y-27632]	only a minor effect on blood pressure

Same assay, conditions: three rat models of hypertension; cited from earlier work

SMILES	blood pressure
C[C@@H](N)[C@H]1CC[C@H](C(=O)Nc2ccncc2)CC1 [Example Y-27632]	significantly decrease blood pressure

Test system: neointimal formation in rats
Assay: not given
Conditions: cited from earlier work

SMILES	neointimal formation
C[C@@H](N)[C@H]1CC[C@H](C(=O)Nc2ccncc2)CC1 [Example Y-27632]	inhibited neointimal formation

Test system: Dahl salt-sensitive rats
Assay: not given
Conditions: rat, in vivo; cited from earlier work

SMILES	ventricular hypertrophy, fibrosis and function
C[C@@H](N)[C@H]1CC[C@H](C(=O)Nc2ccncc2)CC1 [Example Y-27632]	improve ventricular hypertrophy, fibrosis and function
